For assay [1], the target named is T1, COX-2 (Homo sapiens, UniProt P35354).
T1 construct: COX-2 expression is induced in mononuclear cells by treatment with lipopolysaccharide (LPS); endogenous in cells; host or cells: heparinized human whole blood (mononuclear cells, LPS-induced)
T1 sequence (P35354 18-604): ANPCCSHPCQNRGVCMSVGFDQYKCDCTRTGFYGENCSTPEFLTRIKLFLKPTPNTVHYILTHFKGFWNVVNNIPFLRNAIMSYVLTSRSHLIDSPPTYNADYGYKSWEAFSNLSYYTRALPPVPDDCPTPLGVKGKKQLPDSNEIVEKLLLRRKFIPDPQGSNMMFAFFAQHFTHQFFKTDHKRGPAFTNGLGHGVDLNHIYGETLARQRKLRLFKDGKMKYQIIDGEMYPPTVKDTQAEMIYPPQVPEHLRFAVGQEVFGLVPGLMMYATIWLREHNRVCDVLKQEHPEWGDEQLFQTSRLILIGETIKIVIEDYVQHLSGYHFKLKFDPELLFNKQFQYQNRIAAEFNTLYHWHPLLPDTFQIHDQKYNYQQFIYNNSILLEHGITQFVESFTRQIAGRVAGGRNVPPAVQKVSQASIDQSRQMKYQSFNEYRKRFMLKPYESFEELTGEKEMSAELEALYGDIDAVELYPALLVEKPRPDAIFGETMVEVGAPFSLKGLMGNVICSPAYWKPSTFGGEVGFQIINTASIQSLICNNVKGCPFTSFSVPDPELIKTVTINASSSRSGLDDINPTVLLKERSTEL
As to the kind of experiment: COX-2 inhibition in human whole blood (LPS-induced PGE2 production). As to conditions: PGE2 after LPS 10 μg/mL overnight, average where more than one assay, read-out: COX-2_Blood IC50 [μM] (Avg). In kind it is cell-based. The method, then: (§1) In vitro COX-1 and COX-2 inhibition is also determined in human whole blood where COX-1 is constitutively expressed in platelets and COX-2 expression is induced in mononuclear cells by treatment with lipopolysaccharide (LPS) (10 μg/mL). For this assay heparinized human blood is divided into two aliquots: one for measuring TxB2 production (a surrogate indicator of COX-1 activity) and a second for measuring PGE2 production (a surrogate for COX-2 activity). The blood samples are pretreated with test compounds for one hour before stimulation. Compounds are tested in a final concentration range from 0.1 nM to 300 μM using half log increases in concentrations. To measure inhibition of thromboxane B2 (TxB2) generation, A23187 (50 μM) is added, and the blood incubated for one hour. PGE2 production is measured after the addition of LPS (10 μg/mL) followed by overnight incubation. After incubation with A23187 or LPS the samples are centrifuged at 250×g for 10 minutes at 4° C. to collect serum. The amounts PGE2 and TxB2 present in the serum are measured using a chemiluminesence enzyme immunoassay from Assay Designs Inc. (Ann Arbor, Mich.). The levels of prostaglandin in each sample are normalized to the percent inhibition caused by each concentration of the test compound. The percent inhibition data for each donor is pooled and fitted to a 4-parameter logistic function using a regression.

For assay [2], the target named is T2, COX-1 (Homo sapiens, UniProt P23219).
T2 construct: COX-1 is constitutively expressed in platelets; endogenous in cells; host or cells: heparinized human whole blood (platelets, A23187-stimulated)
T2 sequence (P23219 24-599): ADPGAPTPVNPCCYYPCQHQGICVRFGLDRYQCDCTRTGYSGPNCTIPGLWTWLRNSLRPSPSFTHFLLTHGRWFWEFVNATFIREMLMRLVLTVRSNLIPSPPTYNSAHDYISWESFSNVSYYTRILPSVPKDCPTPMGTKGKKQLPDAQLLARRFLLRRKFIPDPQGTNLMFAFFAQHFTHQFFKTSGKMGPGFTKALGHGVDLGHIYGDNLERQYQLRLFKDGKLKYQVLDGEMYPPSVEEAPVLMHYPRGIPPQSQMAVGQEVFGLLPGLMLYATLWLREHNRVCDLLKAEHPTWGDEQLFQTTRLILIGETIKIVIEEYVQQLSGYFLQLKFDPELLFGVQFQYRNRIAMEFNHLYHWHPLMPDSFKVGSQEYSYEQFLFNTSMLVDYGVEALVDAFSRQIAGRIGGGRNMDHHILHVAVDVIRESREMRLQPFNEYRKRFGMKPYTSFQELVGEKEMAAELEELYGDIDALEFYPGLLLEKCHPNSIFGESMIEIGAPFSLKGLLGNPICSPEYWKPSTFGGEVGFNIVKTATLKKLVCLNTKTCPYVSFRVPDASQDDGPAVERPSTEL
In words: COX-1 inhibition in human whole blood (A23187-stimulated TxB2 production). Format: cell-based. The settings on record: TxB2 after A23187 50 μM 1 h, average where more than one assay, read-out: COX-1_Blood IC50 [μM] (Avg). Here is the method: as §1

What is called IC50 is the point on the concentration scale where inhibition reaches its midpoint.

Regarding `CCc1ccc(Nc2ccc(Cl)c(C(C)C)c2F)c(CC(=O)O)c1` [Example 5m, 5-Ethyl-2-(2′-fluoro-4′-chloro-3′-isopropylanilino)phenylacetic acid], the values for the 50% inhibitory concentration (IC50) in assay [1] and in assay [2] were 0.17 µM and 127 µM, respectively.

Take `CCc1ccc(Nc2ccc(C)c(C(F)(F)F)c2F)c(CC(=O)O)c1` [Example 5a, 5-Ethyl-2-(2′-fluoro-4′-methyl-3′-trifluoromethylanilino)phenylacetic acid]: the IC50 in assay [1] amounted to 0.1 µM; in assay [2], 155 µM.

Regarding `CCc1c(Cl)ccc(Nc2ccc(C)cc2CC(=O)O)c1F` [Example 5k, 5-Methyl-2-(2′-fluoro-4′-chloro-3′-ethylanilino)phenylacetic acid], the results for the IC50 in assay [1] and in assay [2] were 0.165 µM and 183 µM, respectively.

As to `Cc1ccc(Nc2ccc(Cl)c(C)c2Cl)c(CC(=O)O)c1` [Example 5e, 5-Methyl-2-(2′,4′-dichloro-3′-methylanilino)phenylacetic acid], the IC50 in assay [1] amounted to 0.073 µM; in assay [2], 126 µM.

For the compound `Cc1ccc(Nc2ccc(Cl)c(C)c2F)c(CC(=O)O)c1` [Example 5i, 5-Methyl-2-(2′-fluoro-4′-chloro-3′-methylanilino)phenylacetic acid], the IC50 is 0.295 µM in assay [1] and 129 µM in assay [2].

(Values after patent US8586782B2, “Phenylacetic acid derivatives” (Novartis AG, priority 2006, dated 2013).)
